Measured values: patent US12533340B2, “Treatment of autoimmune disease in a patient receiving additionally a beta-blocker” (NOVARTIS AG, priority 2015, dated 2026)

How the values were obtained:
healthy volunteers [1] = assay: Clinical trial: effect on heart rate (EmaxHR) from 12-lead Holter ECG recordings; type: in vivo, human; conditions: for mean EmaxHR (maximum change from baseline in time matched, hourly average HR): Day 10, monotherapy at steady state, siponimod 2 mg qd after titration or propranolol 80 mg LA qd, placebo 11.73 bpm
Source text: (§1) Healthy volunteers (men and women) aged between 18 and 55 years with a body mass index of 18-30 kg/m^2 were included in the study. Subjects were required to have an FEV1 of ≥90% of predicted normal, a systolic blood pressure (BP) of 90-140 mm Hg, a diastolic BP of 50-90 mm Hg and a pulse rate of 50-90 bpm. Women of childbearing potential, pregnant or lactating women, homozygous carriers for CYP2C9*3 genotype, smokers, those with current or medical history of cardiovascular disorders or bronchospastic disease were excluded from this study. At screening, a 24 h Holter recording was performed on all subjects to exclude those with any significant arrhythmia.
This was a double-blind, randomised, placebo-controlled study consisting of the following periods: screening (28 days), baseline evaluation (2 days), treatment (20 days) and study completion evaluation (approximately 10 days after the last drug administration; FIG. 1). Eligible subjects were domiciled for 22 days, starting approximately 36 h before dosing until 24 h post-dose after Day 20. The baseline evaluations were performed on Day −2 or Day −1. Subjects were randomised to one of the four treatment groups (A, B, C and D) in a ratio of 1:1:1:1. […] In Group A, treatment was initiated with the siponimod dose-titration regimen (Days 1-6) followed by siponimod 2 mg (Days 7-20). Siponimod was uptitrated by one administration of 0.25 mg siponimod on day 1, one administration of 0.25 mg siponimod on day 2, one administration of 0.5 mg siponimod on day 3, one administration of 0.75 mg siponimod on day 4, one administration of 1.25 mg siponimod on day 5 and one administration of 2 mg siponimod on day 6, followed by a steady dose of 2 mg siponimod qd thereafter. […] These subjects concomitantly received siponimod-placebo (Days 1-10), followed by the siponimod dose-titration regimen (Days 11-16) and siponimod 2 mg (Days 17-20). […]
(§2) The HR and bradyarrhythmias were evaluated from the 12-Lead Holter electrocardiogram (ECG) recordings. […] The hourly average HR in each post-dose hour was calculated from the 60 intervals of per minute HR data. […]

healthy volunteers [2] = assay: Clinical trial: bradyarrhythmias (AVBs, sinus pauses) from 24 h post-dose Holter evaluation; type: in vivo, human
Source text: as §1
This was a double-blind, randomised, placebo-controlled study consisting of the following periods: screening (28 days), baseline evaluation (2 days), treatment (20 days) and study completion evaluation (approximately 10 days after the last drug administration; FIG. 1). Eligible subjects were domiciled for 22 days, starting approximately 36 h before dosing until 24 h post-dose after Day 20. […]
as §2
The cardiac rhythm was evaluated from the 24 h post-dose Holter evaluation as mentioned earlier. […]

[3] = deduced on the basis of previous reports (Legangneux 2013, Murdoch 1991); cited from earlier work

Structure (SMILES)	mean EmaxHR (maximum change from baseline in time matched, hourly average HR) (healthy volunteers [1]) [bpm]	mean difference in EmaxHR, siponimod alone versus propranolol alone (healthy volunteers [1]; Day 10, 95% CI -4.98, 2.87, P=0.595) [bpm]	episodes of second-degree AVBs or SPs of >3 seconds duration (healthy volunteers [2]; 24 h Holter on the evaluation days)	time to reach a pharmacokinetic steady state [3]	episodes of Mobitz I AVB (healthy volunteers [2]; propranolol only treatment)
CCc1cc(/C(C)=N/OCc2ccc(C3CCCCC3)c(C(F)(F)F)c2)ccc1CN1CC(C(=O)O)C1 [siponimod, 1-{4-[1-((E)-4-cyclohexyl-3-trifluoromethyl-benzyloxyimino)-ethyl]-2-ethyl-benzyl}-azetidine-3-carboxylic acid]	16.79	−1.06	no episodes	approximately 10 days	
CC(C)NCC(O)COc1cccc2ccccc12 (stereo not drawn) [propranolol, reference compound]	17.85				Two
